According to patent publication US20120149735A1, “1,4-Dihydropyridine Derivatives and Their Uses” (CENTRE HOSPITALIER REGIONAL UNIVERSITAIRE DE LILLE, priority 2009, published 2012):
Where two headings read alike, the source gives them in different places.

Columns and labels:
[1] = target: T1, hCB2 cannabinoid receptor (Homo sapiens, UniProt P34972); assay: Competition binding assay, hCB2 membranes, [3H]-CP-55,940
T1 construct: purchased PerkinElmer (Belgium)
Method: hCB1 and hCB2 membranes were purchased from PerkinElmer (Belgium). […] Glass fiber filters were purchased from Whatman (Maidstone, U.K.), while Aqualuma was from PerkinElmer (Schaesberg, The Netherlands). Stock solutions of the compounds were prepared in DMSO and further diluted […] with the binding buffer to the desired concentration. Final DMSO concentrations in the assay were less than 0.1%.
The test compounds were present at varying concentrations and the non-specific binding was determined in the presence of 10 μM HU-210. After 1 h the incubation was stopped and the solutions were rapidly filtered through 0.5% PEI pretreated GF/B glass fiber filters on a M-48T Brandell cell harvester and washed twice with 5 mL ice-cold binding buffer without serum albumin. […] Assays were performed at least in triplicate.
(§1) IC50 and EC50 values were determined by non-linear regression analysis performed using the GraphPad prism 4.0 program (GraphPad Software, San Diego). The Ki values (expressed as pKi) were calculated based on the Cheng-Prusoff equation: Ki=IC50/(1+L/Kd). Statistical signification of [^35S]-GTPγS assay results was assessed using an one-way ANOVA followed by a Dunett post-test.

hCB2 receptor = target: T2, hCB2 receptor (Homo sapiens, UniProt P34972); assay: [35S]-GTPγS binding assay (CB2 functional activity assay); format: biochemical; conditions: for EC50: [35S]-GTPγS binding, hCB2
T2 construct: purchased PerkinElmer (Belgium)
T2 sequence (P34972 whole entry): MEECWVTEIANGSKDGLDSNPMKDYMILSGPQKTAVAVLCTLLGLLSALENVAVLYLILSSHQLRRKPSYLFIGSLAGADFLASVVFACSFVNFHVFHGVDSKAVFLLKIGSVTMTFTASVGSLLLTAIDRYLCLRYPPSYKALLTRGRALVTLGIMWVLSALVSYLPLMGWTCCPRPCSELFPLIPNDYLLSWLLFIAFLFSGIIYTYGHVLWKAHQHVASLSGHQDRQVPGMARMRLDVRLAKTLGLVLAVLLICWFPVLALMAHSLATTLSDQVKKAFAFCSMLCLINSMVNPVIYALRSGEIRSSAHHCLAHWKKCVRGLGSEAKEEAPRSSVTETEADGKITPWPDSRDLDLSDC
Method: The Emax value is determined by a CB2 functional activity assay (19, 20).
[^35S]-GTPγS binding Assays
[^35S]-GTPγS (1173 Ci/mmol) was purchased from Amersham (Roosendaal, The Netherlands). The binding experiments were performed at 30° C. in plastic tubes containing 40 μg protein in 0.5 mL (final volume) of binding buffer (50 mM Tris-HCl, 3 mM MgCl2, 1 mM EDTA, 100 mM NaCl, 0.1% bovine serum albumin, pH 7.4) supplemented with 20 μM GDP.
The assay was initiated by the addition of [^35S]-GTPγS (0.05 nM, final concentration). The tubes were incubated for 1 h. The incubations were terminated by the addition of 5 mL ice-cold washing buffer (50 mM Tris-HCl, 3 mM MgCl2, 1 mM EDTA, 100 mM NaCl). The suspension was immediately filtered through GF/B filters using a 48-well Brandell cell harvester and washed twice with the same ice-cold buffer. The radioactivity on the filters was counted as mentioned above. Assays were performed in triplicate.
as §1

TNBS-induced colitis = TNBS-induced colitis in mice; format: in vivo, C57B16 mice; conditions: for MPO activity in colon (neutrophils content): TNBS only 20±5; for TNF-alpha mRNA expression in colon: TNBS only 26±8; for IL-1beta mRNA expression in colon: TNBS only 1610±1041; for colitis macroscopic score (Wallace criteria, scale 0 to 10): intraperitoneally once daily from 3 days before TNBS, killed 3 days after TNBS, TNBS only 3.1±0.3; for histological score (Ameho criteria, scale 0 to 6): intraperitoneally once daily, TNBS only 3.7±1
[2] = hCB2 membranes, [3H]-CP-55,940 (1 nM), 30° C., 1 h, read-out: Ki CB2
[3] = CB2 functional activity assay, basal = 100%, read-out: Emax, bound stated
[4] = percentage of stimulation of [35S]-GTPγS binding, basal value set at 100%, read-out: Functional activity at CB2 EMax
[5] = read-out: binding affinity (Ki) at the CB2 receptor

T1 sequence (P34972 whole entry): as above

Molecule | Ki [1, 2] [nM] | functional character at the CB2 receptor (agonist / inverse agonist) (hCB2 receptor; CB2 functional activity assay) | Emax (hCB2 receptor; [3]) [%] | EC50 (hCB2 receptor) [nM] | Emax (hCB2 receptor; [4]) [%] | melting point [°C] | other results
CCCCCn1cc(C(=O)NC2CCCc3ccccc32)c(=O)cc1-c1ccccc1 (racemic) [Compound 14, (R,S)-4-oxo-1-pentyl-6-phenyl-N-3-(1-(1,2,3,4-tetrahydronaphthyl))-1,4-dihydropyridine-3-carboxamide] | 30.9 ± 3.3 | inverse agonists | < 62 | 5.7 ± 0.7 | 40 ± 1 | 139 | 
CCn1cc(C(=O)NC(C)C23CC4CC(CC(C4)C2)C3)c(=O)cc1-c1ccccc1 [Compound 5, (R,S)—N-3-(1-(1-Adamantyl)ethyl)-1-ethyl-4-oxo-6-phenyl-1,4-dihydropyridine-3-carboxamide] | 414 ± 61 |  |  |  |  | 224 | Ki [1, 5]: < 500 nM
CCCCCn1cc(C(=O)NC(C)C23CC4CC(CC(C4)C2)C3)c(=O)cc1-c1ccccc1 [Compound 6, (R,S)—N-3-(1-(1-Adamantyl)ethyl)-4-oxo-1-pentyl-6-phenyl-1,4-dihydropyridine-3-carboxamide] | 14.3 ± 2.1 | inverse agonists | < 62 | 6.5 ± 1.5 | 46 ± 3 | 169 | Ki [1, 5]: < 500 nM
CC(NC(=O)c1cn(-c2ccccc2)c(-c2ccccc2)cc1=O)C12CC3CC(CC(C3)C1)C2 [Compound 7, (R,S)—N-3-(1-(1-Adamantyl)ethyl)-1,6-diphenyl-4-oxo-1,4-dihydropyridine-3-carboxamide] |  |  |  |  |  | > 250 | Ki [1, 5]: > 500 nM
CCCCCn1cc(C(=O)NCC23CC4CC(CC(C4)C2)C3)c(=O)cc1-c1ccccc1 [Compound 8, N3-((1-Adamantyl)methyl)-4-oxo-1-pentyl-6-phenyl-1,4-dihydropyridine-3-carboxamide] | 23.3 ± 1.9 |  |  |  |  | 154 | 
CCCCCn1cc(C(=O)NC23CC4CC(C)(CC(C)(C4)C2)C3)c(=O)cc1-c1ccccc1 [Compound 9, N3-(1-(3,5-Dimethyl)adamantyl)-4-oxo-1-pentyl-6-phenyl-1,4-dihydropyridine-3-carboxamide] | 6.6 ± 0.7 | inverse agonists | < 62 | 5.8 ± 1.1 | 41 ± 2 | 133 | 
CCCCn1cc(C(=O)NC23CC4CC(CC(C4)C2)C3)c(=O)cc1-c1ccccc1 [Compound 10, N3-(1-Adamantyl)-1-butyl-4-oxo-6-phenyl-1,4-dihydropyridine-3-carboxamide] | 18.4 ± 1.3 |  |  |  |  | 146 | 
CCCCCn1cc(C(=O)NC23CC4CC(CC(C4)C2)C3)c(=O)cc1-c1ccccc1 [Compound 11, N3-(1-Adamantyl)-4-oxo-1-pentyl-6-phenyl-1,4-dihydropyridine-3-carboxamide] | 4 ± 0.4 |  |  |  |  | 145 | 
CCCCCCn1cc(C(=O)NC23CC4CC(CC(C4)C2)C3)c(=O)cc1-c1ccccc1 [Compound 12, N3-(1-Adamantyl)-1-hexyl-4-oxo-6-phenyl-1,4-dihydropyridine-3-carboxamide] | 13.5 ± 0.9 |  |  |  |  | 167 | 
CCCCCn1cc(C(=O)NC2CCCCC2)c(=O)cc1-c1ccccc1 [Compound 13, N3-(Cyclohexyl)-4-oxo-1-pentyl-6-phenyl-1,4-dihydropyridine-3-carboxamide] | 10.6 ± 1.1 | inverse agonists | < 62 | 1.9 ± 0.5 | 62 ± 2 | 120 | 
CCCCCn1cc(C(=O)N[C@@H]2CCCc3ccccc32)c(=O)cc1-c1ccccc1 [Compound 15, (R)-4-oxo-1-pentyl-6-phenyl-N-3-(1-(1,2,3,4-tetrahydronaphthyl))-1,4-dihydropyridine-3-carboxamide] | 10.1 ± 1.1 | inverse agonists | < 62 | 1.9 ± 0.4 | 42 ± 2 | 139 | 
CCCCCn1cc(C(=O)N[C@H]2CCCc3ccccc32)c(=O)cc1-c1ccccc1 [Compound 16, (S)-4-oxo-1-pentyl-6-phenyl-N-3-(1-(1,2,3,4-tetrahydronaphthyl))-1,4-dihydropyridine-3-carboxamide] | 369 ± 41 | inverse agonists | < 62 | 60 ± 16 | 48 ± 3 | 139 | 
CCCCCn1cc(C(=O)NN2CCCCC2)c(=O)cc1-c1ccccc1 [Compound 17, 4-oxo-1-pentyl-6-phenyl-N-3-(piperidin-1-yl)-1,4-dihydropyridine-3-carboxamide] | 92 ± 7 | inverse agonists | < 62 | 26 ± 6 | 48 ± 2 | 122 | 
CCCCCn1cc(C(=O)NC23CC4CC(CC(C4)C2)C3)c(=O)cc1-c1ccc(Cl)cc1 [Compound 18, N3-(1-Adamantyl)-6-(4-chlorophenyl)-1-pentyl-4-oxo-1,4-dihydropyridine-3-carboxamide] | 79 ± 7 |  |  |  |  | 190 | 
CCCCCn1cc(C(=O)NC2CCCCC2)c(=O)cc1-c1ccc(Cl)cc1 [Compound 19, 6-(4-Chlorophenyl)-N-3-cyclohexyl-4-oxo-1-pentyl-1,4-dihydropyridine-3-carboxamide] | 78 ± 9 | inverse agonists | < 62 | 22 ± 4 | 39 ± 2 | 157 | 
CCCCCn1cc(C(=O)NC23CC4CC(CC(C4)C2)C3)c(=O)cc1C(C)(C)C [Compound 20, N3-(1-Adamantyl)-6-tert-butyl-1-pentyl-4-oxo-1,4-dihydropyridine-3-carboxamide] | 29 ± 3 | agonists | > 135 | 12.2 ± 2.5 | 212 ± 3 |  | MPO activity in colon (neutrophils content) (TNBS-induced colitis): 10±3; TNF-alpha mRNA expression in colon (TNBS-induced colitis): 6±1; IL-1beta mRNA expression in colon (TNBS-induced colitis): 22±11; colitis macroscopic score (Wallace criteria, scale 0 to 10) (TNBS-induced colitis): 0.8±0.4; histological score (Ameho criteria, scale 0 to 6) (TNBS-induced colitis): 1.8±0.6; decrease in colitis macroscopic scores (TNBS-induced colitis; vs TNBS only): 74%; decrease of IL-1beta level in colon (TNBS-induced colitis; vs TNBS only): 99%; decrease of MPO activity (TNBS-induced colitis; vs TNBS only): 50%; decrease of TNF-alpha level in colon (TNBS-induced colitis; vs TNBS only): 79%; inhibition of colitis microscopic score (TNBS-induced colitis; vs TNBS only): 51%
CCCCCn1cc(C(=O)NC2CCCCC2)c(=O)cc1C(C)(C)C [Compound 21, N3-(Cyclohexyl)-6-tert-butyl-1-pentyl-4-oxo-1,4-dihydropyridine-3-carboxamide] | 29 ± 3 |  |  |  |  | 91 | 
CCCCCn1cc(C(=O)NC23CC4CC(CC(C4)C2)C3)c(=O)cc1C [Compound 38, N3-(1-Adamantyl)-6-methyl-4-oxo-1-pentyl-1,4-dihydropyridine-3-carboxamide] | 20 ± 3 | agonists | > 135 | 5.5 ± 1.1 | 148 ± 2 | 195 | Ki ([1]; binding affinity (Ki) at the CB2 receptor): < 500 nM; MPO activity in colon (neutrophils content) (TNBS-induced colitis): 14±4; TNF-alpha mRNA expression in colon (TNBS-induced colitis): 18±4; IL-1beta mRNA expression in colon (TNBS-induced colitis): 385±192; colitis macroscopic score (Wallace criteria, scale 0 to 10) (TNBS-induced colitis): 1.8±0.7; histological score (Ameho criteria, scale 0 to 6) (TNBS-induced colitis): 2.5±0.8; decrease in colitis macroscopic scores (TNBS-induced colitis; vs TNBS only): 42%; decrease of MPO activity (TNBS-induced colitis; vs TNBS only): 34%
CCCCCn1cc(C(=O)NC23CC4CC(CC(C4)C2)C3)c(=O)c(I)c1C [Compound 52, N3-(1-Adamantyl)-5-iodo-6-methyl-4-oxo-1-pentyl-1,4-dihydropyridine-3-carboxamide] | 9 ± 1.6 |  |  |  |  |  | Ki [1, 5]: < 500 nM
JWH-133 [reference compound] |  |  |  |  |  |  | colitis macroscopic score (Wallace criteria, scale 0 to 10) (TNBS-induced colitis): 2.1±0.6; histological score (Ameho criteria, scale 0 to 6) (TNBS-induced colitis): induced a decrease of histological scores; decrease in colitis macroscopic scores (TNBS-induced colitis; vs TNBS only): 34%
